In experiment [1] the test system is Clostridium ljungdahlii BCRC 17797. Kind of experiment: Growth (OD600) of Clostridium ljungdahlii under CO2/H2 gas mixture. Format: cell-based. The settings on record: for OD600 value: t=144 hours, 2.5 g/L sodium lactate or 1.52 g/L NaCl in mPETC, 80% H2/20% CO2, 37° C. On the procedure:
(§1) Clostridium ljungdahlii was first cultured anaerobically with mPETC medium containing 10 g/L of fructose at 37° C. in one of the air-tight bottles mentioned above. When OD600 reached a value ranging from 1 to 1.5, the culture medium was centrifuged at 3500 rpm for 210 seconds. The resulting cell pellet was resuspended with mPETC without fructose and then further cultured anaerobically at 37° C. for one hour to remove any residual sugar substrates.
(§2) 45 ml of mPETC culture medium was added to one of the crimp-top serum bottles mentioned above, which was then covered with an aluminum foil and autoclaved for 15 minutes at 121° C., 15 psi. After cooling, the medium-containing bottle was moved into an anaerobic chamber, and 50 μl of cysteine-HCl (50% w/v) was added to the medium to remove any dissolved oxygen.
(§3) For an experimental group, sodium lactate solution was further added to the culture medium to obtain a lactate concentration of 2.5 g/L (about 0.022 M).
(§4) For a sodium ion control group, NaCl solution was added to the culture medium to obtain a NaCl concentration of 1.52 g/L (about 0.026 M). This control group was designed to test whether the sodium ions present in the sodium lactate play any role in carbon dioxide fixation. Thus, the same molar amount of sodium ion as the experimental group was added.
(§5) Each of the serum bottles containing 45 ml of mPETC culture medium was then inoculated with 5 ml of Clostridium ljungdahlii culture that had residual sugar removed. A sample taken at this point was labeled as t=0 sample. The bottles were then sealed with rubber stoppers and further covered with aluminum crimp caps to ensure an air-tight closure.
The headspaces of the air-tight bottles were first purged with a gas mixture containing 80% N2 and 20% of CO2 under a pressure of 10 psi. Needles were inserted into the rubber stops to allow the gas to escape from the bottles. […]
Syringes with needles were used to collect liquid samples. […] The supernatant was analyzed with an Agilent 1100 series high-performance liquid chromatography (HPLC) with Aminex HPX-87 H (300 mm×7.8 mm) column.

For experiment [2] the test system is unchanged. As to the kind of experiment: HPLC analysis of culture medium: acetic acid produced and lactic acid consumed during CO2 fermentation. Conditions: for carbon atoms contained in acetic acid produced / Acetic Acid ΔC (Ct=144 h − Ct=0), acetic acid produced: 144 hours of culture; for Acetic Acid ΔC (Ct=144 h − Ct=0), acetic acid produced / Acetic Acid Ct=0 h / Acetic Acid Ct=144 h: 2.5 g/L sodium lactate or 1.52 g/L sodium chloride in mPETC; for Acetic Acid Ct=0 h: t=0; for Acetic Acid Ct=144 h: t=144 hours; for Acetate production: after 96 hours of culture. Format: cell-based. On the procedure:
as §1, §2, §3, §4, §5
The headspaces of the air-tight bottles were first purged with a gas mixture containing 80% N2 and 20% of CO2 under a pressure of 10 psi. Needles were inserted into the rubber stops to allow the gas to escape from the bottles. After about 30 seconds of exposure to the gas mixture, an anaerobic condition filled with CO2 was obtained within the bottles.
Using needles, the headspaces of the bottles were then further purged with another gas mixture containing 80% H2 and 20% of CO2 under a pressure of 20 psi to replace the previous gas mixture. After about 30 seconds, needles were removed and the pressure within the bottles was built up to about 20 psi. The bottles were then moved to a 37° C. incubator and placed on a shaker providing a shaking speed of 100 rpm.
Every 12 hours, a needle was used to release the gas built up within the bottle, and the headspace of the bottle was purged and refreshed under the same process as described above to replenish gaseous carbon source under a stabilized pressure.
(§6) Syringes with needles were used to collect liquid samples. After measuring the OD600, the liquid samples were centrifuged at 12,000 rpm for 10 minutes. The resulting cell pellet was stored in 700 μl TRIzol solution for later RNA extraction and gene expression analysis. The supernatant was analyzed with an Agilent 1100 series high-performance liquid chromatography (HPLC) with Aminex HPX-87 H (300 mm×7.8 mm) column.
The experimental protocol as described in Example 1 was repeated, except that, besides having a no-additive control group, two experimental groups were prepared, one had 1 g/L of lactate in the culture medium and the other had 2.5 g/L of lactate in the culture medium.

Experiment [3] deals with lactate permease and genes involved in the Wood-Ljungdahl pathway. Kind of experiment: RT-qPCR expression of lactate permease and Wood-Ljungdahl pathway genes. Format: cell-based, Clostridium ljungdahlii. The settings on record: 2.5 g/L sodium lactate; relative to no-additive control group (FIG. 3). As for the experimental part: as §6
Real-time quantitative polymerase chain reaction (RT-qPCR) was used to quantify the expression of certain genes listed in Table 2.
(In qPCR the cycle at which signal appears reflects the starting amount.)

This is an account of results in patent US20140193871A1, “METHOD FOR ENHANCING CARBON BIOFIXATION” (Industrial Technology Research Institute, priority 2013, published 2014).

In the case of `[Cl-].[Na+]` [sodium chloride, reference compound], in experiment [1], the OD600 value stood at 0.82. In experiment [2], the “carbon atoms contained in acetic acid produced” value is “about 0.166 M”; the “Acetic Acid ΔC (Ct=144 h − Ct=0), acetic acid produced” value (“Acetic Acid ΔC” below) is 4.91 g/L; the “Acetic Acid Ct=0 h” value came out at 0.06 ± 0.00 g/L; the “Acetic Acid Ct=144 h” value worked out at 4.97 ± 0.82 g/L. Besides, the “Acetic Acid ΔC” value in experiment [2] (listed as sodium-ion control group) is reported as “about 4.97 g/L”.
Regarding `CC(O)C(=O)O` (stereo not shown) [sodium lactate], the “difference in growth rates between groups” value in experiment [1] (experimental, sodium ion control and no-additive control groups, up to 144 hours) was “no significant difference”. Further, the OD600 value in experiment [1] was found to be 0.71. Moreover, in experiment [2] (1 g/L lactate in medium), the Acetate production came out at 8.13 ± 1.59 g/L. Also, the Acetate production in experiment [2] (2.5 g/L lactate in medium) is 9.15 ± 0.06 g/L. In experiment [2], the “carbon atoms contained in acetic acid produced” value was “about 0.213 M”; the “Acetic Acid ΔC” value is listed as 6.39 g/L; the “Acetic Acid Ct=0 h” value came out at 0.06 ± 0.00 g/L; the “Acetic Acid Ct=144 h” value is 6.45 ± 0.43 g/L. Moreover, the “amount of CO2 converted (fixed) to acetic acid, higher than control group” value in experiment [2] (144 hours, 0.191 M versus 0.166 M of control group) is reported as “at least 15%”. The “carbon atoms that came from CO2 in the gas mixture (CO2 fixed to acetic acid)” value in experiment [2] (144 hours, 2.5 g/L sodium lactate, 0.213 M minus 0.022 M) is “at least 0.191 M”. Also, in experiment [3], the “fold increase of CooS1” value is approximately 3 fold, the “fold increase of lactate permease” value is on record as approximately 11 fold and the “fold increase of metF” value is on record as approximately 4 fold.
